Read-outs that look alike come from different tables or passages of the source.
Key:
Format in all cases: cell-based
CDK4 = target: T1, CDK4 (Homo sapiens, UniProt P11802); test: CDK4 degradation (DC50, Dmax)
T1 construct: endogenous in cells

CDK6 = target: T2, CDK6 (Homo sapiens, UniProt Q00534); test: CDK6 degradation (DC50, Dmax)
T2 construct: endogenous in cells

[1] = system: mantle cell lymphoma cell (Mino or JeKo-1); test: Antiproliferative effect, MTS cell viability assay
Method: Antiproliferative effect of the exemplary compounds was assessed in B-cell malignancy models.
To assess the effect of the exemplary compounds on cell viability in B-cell malignancy models by degradation of CDK4/6 proteins, Mino cells were treated with varying concentrations of exemplary compounds (0, 0.0001, 0.001, 0.01, 0.1, 1 μM) or positive control (palbociclib and abemaciclib). Under these conditions, cell viability was determined by an MTS assay. Cytotoxicity was assayed by the determination of reduced tetrazolium (formazan) created by metabolically active cells as detected at 490 nanometers (nm) absorbance using a microplate reader (BMG Labtech, Cary, NC, USA).
The exemplary compounds attenuated the viability of Mino cells in a concentration-dependent manner at 72 h post treatment. Results are shown in Table 1 and FIGS. 2-15 for each exemplary compound.

[2] = mantle cell lymphoma cell (Mino or JeKo-1); MTS assay, 72 h; read-out: IC50 (anti-proliferation)
[3] = 72 h, mantle cell lymphoma cell (Mino or JeKo-1), MTS assay, read-out: IC50 (anti-proliferation)

T2 sequence (Q00534 whole entry): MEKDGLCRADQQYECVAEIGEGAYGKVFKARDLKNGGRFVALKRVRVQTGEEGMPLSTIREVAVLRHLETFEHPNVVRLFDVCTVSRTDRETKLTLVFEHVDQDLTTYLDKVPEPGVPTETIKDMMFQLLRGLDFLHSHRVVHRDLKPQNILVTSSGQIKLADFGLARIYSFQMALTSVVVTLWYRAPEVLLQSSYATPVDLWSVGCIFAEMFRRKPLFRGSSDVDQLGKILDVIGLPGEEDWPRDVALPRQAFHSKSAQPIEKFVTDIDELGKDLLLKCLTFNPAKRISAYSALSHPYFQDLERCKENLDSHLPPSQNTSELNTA
T1 sequence (P11802 whole entry): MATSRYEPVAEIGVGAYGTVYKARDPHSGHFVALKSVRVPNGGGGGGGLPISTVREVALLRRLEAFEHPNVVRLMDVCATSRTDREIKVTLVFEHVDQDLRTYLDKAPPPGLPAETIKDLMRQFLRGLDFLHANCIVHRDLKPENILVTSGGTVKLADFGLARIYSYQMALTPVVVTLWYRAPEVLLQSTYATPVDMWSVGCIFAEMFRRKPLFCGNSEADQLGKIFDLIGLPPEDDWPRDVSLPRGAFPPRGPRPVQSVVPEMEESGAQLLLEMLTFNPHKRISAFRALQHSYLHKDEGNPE

SMILES	DC50 (CDK4) [nM]	Dmax (CDK4) [%]	DC50 (CDK6) [nM]	Dmax (CDK6) [%]	IC50 [1, 3] [nM]	IC50 [1, 2] [nM]
CC(=O)c1c(C)c2cnc(Nc3ccc(N4CCN(CC5CCN(C(=O)N6CCN(c7ccc8c(c7)C(=O)N(C7CCC(=O)NC7=O)C8=O)CC6)CC5)CC4)cn3)nc2n(C2CCCC2)c1=O (stereo not drawn) [Compound 31, 5-(4-(4-((4-(6-((6-acetyl-8-cyclopentyl-5-methyl-7-oxo-7,8-dihydropyrido[2,3-d]pyrimidin-2-yl)amino)pyridin-3-yl)piperazin-1-yl)methyl)piperidine-1-carbonyl)piperazin-1-yl)-2-(2,6-dioxopiperidin-3-yl)isoindoline-1,3-dione]	50 to 200	> 80	50 to 200	> 80	–	< 50
Cc1nc2c(F)cc(-c3nc(Nc4ccc(CC5CCN(C(=O)C6CN(c7ccc8c(c7)C(=O)N(C7CCC(=O)NC7=O)C8=O)C6)CC5)cn4)ncc3F)cc2n1C(C)C (stereo not drawn) [Compound 143, 2-(2,6-dioxopiperidin-3-yl)-5-(3-(4-((6-((5-fluoro-4-(4-fluoro-1-isopropyl-2-methyl-1H-benzo[d]imidazol-6-yl)pyrimidin-2-yl)amino)pyridin-3-yl)methyl)piperidine-1-carbonyl)azetidin-1-yl)isoindoline-1,3-dione]	50 to 200	> 80	50 to 200	> 60	< 50	–
CC(=O)c1c(C)c2cnc(Nc3ccc(N4CCN(C5CN(c6cccc7c6C(=O)N(C6CCC(=O)NC6=O)C7=O)C5)CC4)cn3)nc2n(C2CCCC2)c1=O (stereo not drawn) [Compound 79, 4-(3-(4-(6-((6-acetyl-8-cyclopentyl-5-methyl-7-oxo-7,8-dihydropyrido[2,3-d]pyrimidin-2-yl)amino)pyridin-3-yl)piperazin-1-yl)azetidin-1-yl)-2-(2,6-dioxopiperidin-3-yl)isoindoline-1,3-dione]	50 to 200	> 60	50 to 200	> 60	50 to 200	–
Cc1nc2c(F)cc(-c3nc(Nc4ccc(CC5CCN(CC6CN(c7ccc8c(c7)C(=O)N(C7CCC(=O)NC7=O)C8=O)C6)CC5)cn4)ncc3F)cc2n1C(C)C (stereo not drawn) [Compound 139, 2-(2,6-dioxopiperidin-3-yl)-5-(3-((4-((6-((5-fluoro-4-(4-fluoro-1-isopropyl-2-methyl-1H-benzo[d]imidazol-6-yl)pyrimidin-2-yl)amino)pyridin-3-yl)methyl)piperidin-1-yl)methyl)azetidin-1-yl)isoindoline-1,3-dione]	< 50	> 80	< 50	> 80	< 50	–
CC(=O)c1c(C)c2cnc(Nc3ccc(N4CCN(C(=O)N5CCN(c6ccc7c(c6)C(=O)N(C6CCC(=O)NC6=O)C7=O)CC5)CC4)cn3)nc2n(C2CCCC2)c1=O (stereo not drawn) [Compound 1, 5-(4-(4-(6-((6-acetyl-8-cyclopentyl-5-methyl-7-oxo-7,8-dihydropyrido[2,3-d]pyrimidin-2-yl)amino)pyridin-3-yl)piperazine-1-carbonyl)piperazin-1-yl)-2-(2,6-dioxopiperidin-3-yl) isoindoline-1,3-dione]	50 to 200	> 60	< 50	> 60	–	< 50
CC(=O)c1c(C)c2cnc(Nc3ccc(N4CCN(CCN(C)c5cccc6c5C(=O)N(C5CCC(=O)NC5=O)C6=O)CC4)cn3)nc2n(C2CCCC2)c1=O (stereo not drawn) [Compound 61, 4-((2-(4-(6-((6-acetyl-8-cyclopentyl-5-methyl-7-oxo-7,8-dihydropyrido[2,3-d]pyrimidin-2-yl)amino)pyridin-3-yl)piperazin-1-yl)ethyl)(methyl)amino)-2-(2,6-dioxopiperidin-3-yl) isoindoline-1,3-dione]	50 to 200	> 60	50 to 200	> 60	50 to 200	–

Further lines, with some results ahead:

DC50 (CDK4) [nM]	Dmax (CDK4) [%]	DC50 (CDK6) [nM]	Dmax (CDK6) [%]	IC50 [1, 3] [nM]	SMILES	IC50 [1, 2] [nM]
> 200	> 50	> 200	> 50	> 200	CC(=O)c1c(C)c2cnc(Nc3ccc(N4CCN(C(=O)N5CCC(CN6CCC(c7ccc8c(c7)CN(C7CCC(=O)NC7=O)C8=O)CC6)CC5)CC4)cn3)nc2n(C2CCCC2)c1=O (stereo not drawn) [Compound 18, 3-(5-(1-((1-(4-(6-((6-acetyl-8-cyclopentyl-5-methyl-7-oxo-7,8-dihydropyrido[2,3-d]pyrimidin-2-yl)amino)pyridin-3-yl)piperazine-1-carbonyl)piperidin-4-yl)methyl)piperidin-4-yl)-1-oxoisoindolin-2-yl) piperidine-2,6-dione]	–
> 200	> 50	> 200	> 50	> 200	CC(=O)c1c(C)c2cnc(Nc3ccc(N4CCN(C(=O)N5CCN(CC6CCN(c7ccc8c(c7)C(=O)N(C7CCC(=O)NC7=O)C8=O)CC6)CC5)CC4)cn3)nc2n(C2CCCC2)c1=O (stereo not drawn) [Compound 15, 5-(4-((4-(4-(6-((6-acetyl-8-cyclopentyl-5-methyl-7-oxo-7,8-dihydropyrido[2,3-d]pyrimidin-2-yl)amino)pyridin-3-yl)piperazine-1-carbonyl)piperazin-1-yl)methyl)piperidin-1-yl)-2-(2,6-dioxopiperidin-3-yl) isoindoline-1,3-dione]	–
> 200	> 50	> 200	> 50	> 200	CC(=O)c1c(C)c2cnc(Nc3ccc(N4CCN(C(=O)N5CCN(CC6CCN(c7ccc8c(c7)CN(C7CCC(=O)NC7=O)C8=O)CC6)CC5)CC4)cn3)nc2n(C2CCCC2)c1=O (stereo not drawn) [Compound 16, 3-(5-(4-((4-(4-(6-((6-acetyl-8-cyclopentyl-5-methyl-7-oxo-7,8-dihydropyrido[2,3-d]pyrimidin-2-yl)amino)pyridin-3-yl)piperazine-1-carbonyl)piperazin-1-yl)methyl)piperidin-1-yl)-1-oxoisoindolin-2-yl)piperidine-2,6-dione]	–
< 50	> 80	50 to 200	> 80	< 50	CC(=O)c1c(C)c2cnc(Nc3ccc(N4CCN(CCN5CCN(c6ccc7c(c6)C(=O)N(C6CCC(=O)NC6=O)C7=O)CC5)CC4)cn3)nc2n(C2CCCC2)c1=O (stereo not drawn) [Compound 67, 5-(4-(2-(4-(6-((6-acetyl-8-cyclopentyl-5-methyl-7-oxo-7,8-dihydropyrido[2,3-d]pyrimidin-2-yl)amino)pyridin-3-yl)piperazin-1-yl)ethyl)piperazin-1-yl)-2-(2,6-dioxopiperidin-3-yl) isoindoline-1,3-dione]	–
> 200	> 50	> 200	> 50	> 200	CC(=O)c1c(C)c2cnc(Nc3ccc(N4CCN(C(=O)N5CCN(C6CCN(c7ccc8c(c7)CN(C7CCC(=O)NC7=O)C8=O)CC6)CC5)CC4)cn3)nc2n(C2CCCC2)c1=O (stereo not drawn) [Compound 6, 3-(5-(4-(4-(4-(6-((6-acetyl-8-cyclopentyl-5-methyl-7-oxo-7,8-dihydropyrido[2,3-d]pyrimidin-2-yl)amino)pyridin-3-yl)piperazine-1-carbonyl)piperazin-1-yl)piperidin-1-yl)-1-oxoisoindolin-2-yl)piperidine-2,6-dione]	–
> 200	> 50	> 200	> 50	> 200	CC(=O)c1c(C)c2cnc(Nc3ccc(N4CCN(C5CCN(C(=O)N6CCC(c7ccc8c(c7)CN(C7CCC(=O)NC7=O)C8=O)CC6)CC5)CC4)cn3)nc2n(C2CCCC2)c1=O (stereo not drawn) [Compound 38, 3-(5-(1-(4-(4-(6-((6-acetyl-8-cyclopentyl-5-methyl-7-oxo-7,8-dihydropyrido[2,3-d]pyrimidin-2-yl)amino)pyridin-3-yl)piperazin-1-yl)piperidine-1-carbonyl)piperidin-4-yl)-1-oxoisoindolin-2-yl)piperidine-2,6-dione]	–
> 200	> 50	> 200	> 50	> 200	CC(=O)c1c(C)c2cnc(Nc3ccc(N4CCN(C(=O)N5CCC(CCN6CCC(c7ccc8c(c7)CN(C7CCC(=O)NC7=O)C8=O)CC6)CC5)CC4)cn3)nc2n(C2CCCC2)c1=O (stereo not drawn) [Compound 30, 3-(5-(1-(2-(1-(4-(6-((6-acetyl-8-cyclopentyl-5-methyl-7-oxo-7,8-dihydropyrido[2,3-d]pyrimidin-2-yl)amino)pyridin-3-yl)piperazine-1-carbonyl)piperidin-4-yl)ethyl)piperidin-4-yl)-1-oxoisoindolin-2-yl)piperidine-2,6-dione]	–
< 50	> 80	< 50	> 80	< 50	CC(=O)c1c(C)c2cnc(Nc3ccc(N4CCN(CC5CN(c6ccc(N7CCC(=O)NC7=O)cc6)C5)CC4)cn3)nc2n(C2CCCC2)c1=O [Compound 111, 1-(4-(3-((4-(6-((6-acetyl-8-cyclopentyl-5-methyl-7-oxo-7,8-dihydropyrido[2,3-d]pyrimidin-2-yl)amino)pyridin-3-yl)piperazin-1-yl)methyl)azetidin-1-yl)phenyl) dihydropyrimidine-2,4(1H,3H)-dione]	–
> 200	> 60	> 200	> 60	50 to 200	CC(=O)c1c(C)c2cnc(Nc3ccc(N4CCN(C(=O)N5CCN(CCN6CCC(c7ccc8c(c7)C(=O)N(C7CCC(=O)NC7=O)C8=O)CC6)CC5)CC4)cn3)nc2n(C2CCCC2)c1=O (stereo not drawn) [Compound 27, 5-(1-(2-(4-(4-(6-((6-acetyl-8-cyclopentyl-5-methyl-7-oxo-7,8-dihydropyrido[2,3-d]pyrimidin-2-yl)amino)pyridin-3-yl)piperazine-1-carbonyl)piperazin-1-yl)ethyl)piperidin-4-yl)-2-(2,6-dioxopiperidin-3-yl)isoindoline-1,3-dione]	–

From patent US20230295118A1 (EnhancedBio Inc., priority 2022, published 2023)
